Laboratory results reported in patent publication US20110129532A1, “METHOD AND MEANS FOR TREATING VIRAL DISEASE, IN PARTICULAR HIV/AIDS” (ISR Immune System Regulation AB, priority 2008, published 2011).

Key:
PBMC = experiment: IL-2-induced PBMC proliferation assay ([3H]thymidine); assay type: cell-based, human; conditions: PBMC from a healthy donor; with IL-2 50 U/mL; compared with IL-2 alone and untreated controls; FIG. 1
Description: Isolation of peripheral blood mononuclear cells (PBMC). Lymphocytes and monocytes were purified from blood samples from healthy donors using Ficoll-Paque Plus (Amersham Biosciences, Uppsala, Sweden). The blood sample was diluted with PBS and carefully layered on a Ficoll-sodium diatrizoate solution, after which the two-phase system was centrifuged at 400×g for 30 min. […] The lymphocyte layer was collected using a Pasteur pipette, and the cells washed with HBSS to remove excess Ficoll-Paque Plus, plasma and platelets. The cells were counted and dissolved in RPMI medium containing 10% HuS, 1% PeSt and 1% glutamine.
Proliferation assay. Interleukin (IL)-2 plays a pivotal role in lymphocyte activation and proliferation. For this reason the effect of GnRH analog on IL-2-induced PBMC proliferation was investigated. PBMCs from a healthy donor were plated in round-bottomed 96-well plates at a concentration of 1×10^5 cells/100 μL in the culture medium described above. Just after the onset of culture, the cells were treated with IL-2 (Proleukin, Chiron Corporation, Emeryville, Ca, USA) at a concentration of 50 U/mL and with three different concentrations between 1×10^−9 and 1×10^−5 M of GnRH analog (Leuprolide acetate, Nordic Drugs, Limhamn, Sweden) or culture medium (FIG. 1). […] Radioactivity was measured using a 1205 Betaplate Liquid ScintillCounter (Wallac, Turku, Finland).

T cells = experiment: Stimulation of T cells in whole blood with GnRH analog, activation markers by flow cytometry; assay type: cell-based, human
Description: Stimulation of T-cells from HIV-patients with GnRH-analog. Because of the risk of contamination, blood samples from HIV-patients had to be handled and analyzed in a closed automated system. Heparinised blood from three HIV-patients and two healthy individuals was diluted with serum-free culture medium (Aim V from Invitrogen) and stimulated with 50 U/mL IL-2 and four different concentrations of the GnRH analog leuprolide acetate between 10^−1 and 10^−5 M. The blood samples were handled by a dispensation robot (Prep Plus) and incubated, lysed, stabilized and fixed in a TQ-Prep machine. The incubation time was 18 h and the temperature 37° C. After the incubation with Leuprolide acetate and IL-2, the cells were stained with fluorochrome-conjugated mAbs for 10 min, and red blood cells were lysed. The lymphocytes were subsequently analysed by flow cytometry on an Epics XL-MCL (all machines from Beckman Coulter). T-cells were identified by their forward-and side scatter properties, and the surface expression of CD3. The expression of the activation markers CD25, CD69, HLA ABC, and HLA DR on T cells was evaluated.

[1] = whole blood, HIV-infected patients and control subjects, 18 h incubation

CCNC(=O)[C@@H]1CCCN1C(=O)[C@H](CCCNC(=N)N)NC(=O)[C@H](CC(C)C)NC(=O)[C@@H](CC(C)C)NC(=O)[C@H](Cc1ccc(O)cc1)NC(=O)[C@H](CO)NC(=O)[C@H](Cc1c[nH]c2ccccc12)NC(=O)[C@H](Cc1c[nH]cn1)NC(=O)[C@@H]1CCC(=O)N1 [GnRH, D-Leu^6, des-Gly-NH2^10] GnRH (1-9) NHEt]
PBMC proliferation (PBMC): increased proliferation
expression of HLA DR on T cells (T cells; whole blood from HIV-patients, 18 h incubation): increased in one of three HIV-patients
expression of HLA ABC on T cells (T cells; whole blood from healthy subjects or HIV-infected patients, 18 hours incubation, 50 U/mL IL-2, leuprolide acetate between 10^−1 and 10^−5 M, FIG. 6): upregulation of HLA ABC
expression of CD25 on T cells (T cells; [1]): only a slight increase
expression of CD69 on T cells (T cells; [1]): only a slight increase
